Patent US5773644A, “Cyclopropyl alkanoic acid derivatives” (G. D. Searle & Co., priority 1997, dated 1998)
Where a name gives a salt, the structure may show the parent alone. Read-outs that look alike come from different tables or passages of the source.

Tests used:
[1] = target: T1, Human vitronectin receptor (αv β3) (Homo sapiens, UniProt P05106+P06756); experiment: Vitronectin adhesion assay (solid phase receptor assay, competition with biotinylated vitronectin); assay type: binding
T1 construct: Human vitronectin receptor(αv β3) was purified from human placenta; from tissue; host or cells: human placenta
Description: Human vitronectin receptor(αv β3) was purified from human placenta as previously described [Pytela et al., Methods in Enzymology, 144:475-489 (1987)]. Human vitronectin was purified from fresh frozen plasma as previously described [Yatohgo et al., Cell Structure and Function, 13:281-292 (1988)]. Biotinylated human vitronectin was prepared by coupling NHS-biotin from Pierce Chemical Company (Rockford, Ill.) to purified vitronectin as previously described [Charo et al., J. Biol. Chem., 266(3):1415-1421 (1991)]. Assay buffer, OPD substrate tablets, and RIA grade BSA were obtained from Sigma (St. Louis, Mo.). Anti-biotin antibody was obtained from Calbiochem (La Jolla, Calif.). Linbro microtiter plates were obtained from Flow Labs (McLean, Va.). ADP reagent was obtained from Sigma (St. Louis, Mo.). This assay was essentially the same as previously reported [Niiya et al., Blood, 70:475-483 (1987)]. The purified human vitronectin receptor (αv β3) was diluted from stock solutions to 1.0 μg/mL in Tris-buffered saline containing 1.0 mM Ca^++, Mg^++, and Mn^++, pH 7.4 (TBS^+++). The diluted receptor was immediately transferred to Linbro microtiter plates at 100 μL/well (100 ng receptor/well). The plates were sealed and incubated overnight at 4° C. to allow the receptor to bind to the wells. All remaining steps were at room temperature. The assay plates were emptied and 200 μL of 1% RIA grade BSA in TBS^+++ (TBS^+++ /BSA) were added to block exposed plastic surfaces. Following a 2 hour incubation, the assay plates were washed with TBS^+++ using a 96 well plate washer. Logarithmic serial dilution of the test compound and controls were made starting at a stock concentration of 2 mM and using 2 nM biotinylated vitronectin in TBS^+++ /BSA as the diluent. This premixing of labeled ligand with test (or control) ligand, and subsequent transfer of 50 μL aliquots to the assay plate was carried out with a CETUS Propette robot; the final concentration of the labeled ligand was 1 nM and the highest concentration of test compound was 1.0×10^-4 M. The competition occurred for two hours after which all wells were washed with a plate washer as before. Affinity purified horseradish peroxidase labeled goat anti-biotin antibody was diluted 1:3000 in TBS^+++ /BSA and 125 μL were added to each well. After 30 minutes, the plates were washed and incubated with OPD/H2 O2 substrate in 100 mM/L Citrate buffer, pH 5.0. The plate was read with a microtiter plate reader at a wavelength of 450 nm and when the maximum-binding control wells reached an absorbance of about 1.0, the final A450 were recorded for analysis. The data were analyzed using a macro written for use with the EXCEL™ spreadsheet program. The mean, standard deviation, and %CV were determined for duplicate concentrations. The mean A450 values were normalized to the mean of four maximum-binding controls (no competitor added) (B-MAX). The normalized values were subjected to a four parameter curve fit algorithm [Rodbard et al., Int.

[2] = target: T2, Human fibrinogen receptor (αIIb β3) (Homo sapiens, UniProt P05106+P08514); experiment: Purified IIb/IIIa receptor assay (solid phase receptor assay, competition with biotinylated vitronectin); conditions: inhibition of 50% of maximum binding of 1 nM biotinylated vitronectin; 2 h competition, room temperature, TBS+++ pH 7.4
T2 construct: Human fibrinogen receptor (αIIb β3) was purified from outdated platelets; from tissue; host or cells: outdated platelets (human)
Text: Human fibrinogen receptor (αIIb β3) was purified from outdated platelets. (Pytela, R., Pierschbacher, […]., Suzuki, S., and […] acid adhesion receptors", Methods in Enzymology 144(1987):475-489.) Human vitronectin was purified from fresh frozen plasma as described in Yatohgo, T., Izumi, M., Kashiwagi, H., and Hayashi, M., "Novel purification of vitronectin from human plasma by heparin affinity chromatography," Cell Structure and Function 13(1988):281-292. Biotinylated human vitronectin was prepared by coupling NHS-biotin from Pierce Chemical Company (Rockford, Ill.) to purified vitronectin as previously described. (Charo, […]., Phillips, D. R., Hsu, M. A., Scarborough, R. M., "Inhibition of fibrinogen binding to GP IIb/IIIa by a GP IIIa peptide", J. Biol. Chem. 266(3) (1991): 1415-1421.) Assay buffer, OPD substrate tablets, and RIA grade BSA were obtained from Sigma (St. Louis, Mo.). Anti-biotin antibody was obtained from Calbiochem (La Jolla, Calif.). Linbro microtiter plates were obtained from Flow Labs (McLean, Va.). ADP reagent was obtained from Sigma (St. Louis, Mo.). This assay is essentially the same reported in […]., Bader, R., Byers-Ward, […]., Plow, E. F. and Ruggeri, Z. M., "Increased surface expression of the membrane glycoprotein IIb/IIIa complex induced by platelet activation: Relationships to the binding of fibrinogen and platelet aggregation", Blood 70(1987):475-483. The purified human fibrinogen receptor (αIIb β3) was diluted from stock solutions to 1.0 μg/mL in Tris-buffered saline containing 1.0 mM Ca^++, Mg^++, and Mn^++, pH 7.4 (TBS^+++). The diluted receptor was immediately transferred to Linbro microtiter plates at 100 μL/well (100 ng receptor/well). The plates were sealed and incubated overnight at 4° C. to allow the receptor to bind to the wells. All remaining steps were at room temperature. The assay plates were emptied and 200 μL of 1% RIA grade BSA in TBS^+++ (TBS^+++ /BSA) were added to block exposed plastic surfaces. Following a 2 hour incubation, the assay plates were washed with TBS^+++ using a 96 well plate washer. Logarithmic serial dilution of the test compound and controls were made starting at a stock concentration of 2 mM and using 2 nM biotinylated vitronectin in TBS^+++ /BSA as the diluent. This premixing of labeled ligand with test (or control) ligand, and subsequent transfer of 50 μL aliquots to the assay plate was carried out with a CETUS Propette robot; the final concentration of the labeled ligand was 1 nM and the highest concentration of test compound was 1.0×10^-4 M. The competition occurred for two hours after which all wells were washed with a plate washer as before. Affinity purified horseradish peroxidase labeled goat anti-biotin antibody was diluted 1:3000 in TBS^+++ /BSA and 125 μL were added to each well. After 30 minutes, the plates were washed and incubated with […]/H2 O2 substrate in 100 mM/L citrate buffer, pH 5.0. The plate was read with a microtiter plate reader at a wavelength of 450 nm and when the maximum-binding control wells reached an absorbance of about 1.0, the final A450 were recorded for analysis. The data were analyzed using a macro written for use with the EXCELTM spreadsheet program. The mean, standard deviation, and %CV were determined for duplicate concentrations. The mean A450 values were normalized to the mean of four maximum-binding controls (no competitor added) (B-MAX). The normalized values were subjected to a four parameter curve fit algorithm, [Robard et al., Int.

[3] = inhibition of 50% of maximum binding of 1 nM biotinylated vitronectin, 2 h competition, room temperature, TBS+++ pH 7.4, read-out: AVB3 IC50

Molecule | IC50 [1, 3] | IC50 [2] | IC50 ([1]; positive control included on each plate, stated range, read-out: αv β3 antagonist IC50 (positive control))
O=C(Nc1ccc(C2CC2C(=O)O)cc1)c1cccc(NC2=NCCCN2)c1 (stereo not drawn) [Example 7, 2-[4-[[[3-[(1,4,5,6-tetrahydropyrimidin-2-yl)amino]phenyl]carbonyl]amino]phenyl]cyclopropanecarboxylic acid, trifluoroacetate salt] | 19 nM | 4800 nM | –
N=C(N)NCCCCC(=O)NCC(=O)NC(CC(=O)O)c1cccnc1 (stereo not drawn) [β-[[2-[[5-[(aminoiminomethyl)amino]-1-oxopentyl]amino]-1-oxoethyl]amino]-3-pyridinepropanoic acid, reference compound] | – | – | 3 to 10 nM
N=C(N)Nc1cccc(C(=O)Nc2ccc(C3CC3C(=O)O)cc2)c1 (stereo not drawn) [Example 2, 2-[4-[[[3-[(aminoiminomethyl)amino]phenyl]carbonyl]amino]phenyl]cyclopropanecarboxylic acid, trifluoroacetate salt] | 30.5 nM | 533 nM | –
COc1cc(NC(=O)c2cccc(NC(=N)N)c2)ccc1C1CC1C(=O)O (stereo not drawn) [Example 5, 2-[4-[[[3-[(aminoiminomethyl)amino]phenyl]carbonyl]amino]-2-methoxyphenyl]cyclopropanecarboxylic acid, trifluoroacetate salt] | 81.1 nM | 2890 nM | –
NC(=O)N=C(N)Nc1cccc(C(=O)Nc2ccc(C3CC3C(=O)O)cc2)c1 (stereo not drawn) [Example 8, 2-[4-[[[3-[(amino[(aminocarbonyl)imino]methyl]amino]phenyl]carbonyl]amino]phenyl]cyclopropanecarboxylic acid, trifluoroacetate salt] | 1380 nM | 13100 nM | –
CCOC(=O)C1CC1c1ccc(NC(=O)c2cccc(NC(=N)N)c2)cc1 (stereo not drawn) [Example 1, ethyl 2-[4-[[[3-[(aminoiminomethyl)amino]phenyl]carbonyl]amino]phenyl]cyclopropanecarboxylate, monohydrate trifluoroacetate salt] | 525 nM | 3650 nM | –
N=C(N)Nc1cc(C(=O)Nc2ccc(C3CC3C(=O)O)cc2)cc(C(F)(F)F)c1 (stereo not drawn) [Example 6, 2-[4-[[[3-[(aminoiminomethyl)amino]-5-(trifluoromethyl)phenyl]carbonyl]amino]phenyl]cyclopropanecarboxylic acid, trifluoroacetate salt] | 122 nM | 9700 nM | –
2-[3-[[[[3-[(aminoiminomethyl)amino]phenyl]carbonyl]amino]methyl]phenyl]cyclopropanecarboxylic acid, trifluoroacetate salt [Example 3] | 923 nM | 5280 nM | –
